Experimental data: US10179773B2, “Isoxazole carboxamides as irreversible SMYD inhibitors” (EPIZYME, INC., priority 2014, dated 2019)

Assays:
[1] = target: T1, SMYD3 (Homo sapiens (Human), UniProt Q9H7B4); assay: SMYD3 Cell Assay (Trimethyl-MEKK2 In-Cell Western, 293T/17 cells); format: cell-based; details: 293T/17 cells transfected with MEKK2-flag and SMYD3; 24 hours; trimethyl-MEKK2 signal; average of n = 1 to n = 50
Source text: 293T/17 adherent cells were purchased from ATCC (American Type Culture Collection), Manassas, Va., USA. MEM/Glutamax medium, Optimem Reduced Serum medium, penicillin-streptomycin, 0.05% trypsin and 1× D-PBS were purchased from Life Technologies, Grand Island, N.Y., USA. PBS-10× was purchased from Ambion, Life Technologies, Grand Island, N.Y., USA. PBS with Tween 20 (PBST (10×)) was purchased from KPL, Gaithersburg, Md., USA. Tet System FBS-approved FBS US Source was purchased from Clontech, Mountain View, Calif., USA. Odyssey blocking buffer, 800CW goat anti-rabbit IgG (H+L) antibody, 680CW Goat anti-mouse IgG (H+L) and Licor Odyssey infrared scanner were purchased from Licor Biosciences, Lincoln, Nebr., USA. Tri-methyl-Lysine [A260]-MEKK2 antibody, MEKK2 and SMYD3 plasmids were made at Epizyme. Anti-flag monoclonal mouse antibody was purchased from Sigma, St. Louis, Mo., USA. Methanol was purchased from VWR, Franklin, Mass., USA. 10% Tween 20 was purchased from KPL, Inc., Gaithersburg, Md., USA. Fugene was purchased from Promega, Madison, Wis., USA. The Biotek ELx405 was purchased from BioTek, Winooski, Vt., USA. The multidrop combi was purchased from Thermo Scientific, Waltham, Mass., USA.
293T/17 adherent cells were maintained in growth medium (MEM/Glutamax medium supplemented with 10% v/v Tet System FBS and cultured at 37° C. under 5% CO2.
293T/17 cells were seeded in assay medium at a concentration of 33,333 cells per cm^2 in 30 mL medium per T150 flask and incubated at 37° C. under 5% CO2. Plasmids were prepared for delivery to cells by first mixing 1350 μL Opti-MEM with Fugene (81 μL) in a sterile Eppendorf and incubated for five minutes at room temperature (RT). MEKK2-flag (13.6 ug/T150) MEKK2 p3XFlag-CMV-14 with C-3XFlag and SMYD3 (0.151 ug/T150) SMYD3 p3XFlag-CMV-14 without C-3XFlag plasmids were aliquotted to a 1.7 mL sterile microfuge tube. The gene ID for MEKK2 and SMYD3 is NM_006609.3 and Q9H7B4, respectively. Entire volume of Opti-MEM/Fugene mixture was then added to a microfuge tube containing DNA plasmid, mixed and then incubated ×15 minutes at RT. The medium on the 293T/17 cells was refreshed, and the DNA/Fugene complex is added aseptically to each flask, rocked gently, and incubated at 37 C for 5 hours. Medium was then removed, and cells were washed once with PBS in the flask. Trypsin 0.05% (3 mL) was added and cells incubated for three minutes. Room temperature MEM+10% Tet system FBS was added and cells were mixed gently, and counted using the Vi-cell. Cells were seeded at 100,000 cells/mL in 50 μL MEM/10% Tet FBS/Pen/Strep to a 384 well black/clear poly-D-lysine coated plate containing test agent diluted in DMSO. The final top concentration of test compound was 40 μM. […] Plates were incubated×30 minutes at RT in low-airflow area, followed by incubation at 37° C. under 5% CO2 for 24 hours. Medium was aspirated from all wells of assay plates prior to fixation and permeabilization with ice cold (−20° C.) methanol (90 μL/well) for ten minutes. Plates were rinsed with PBS three times on BioTek ELx405. PBS was removed with a final aspiration, and Odyssey blocking buffer (50 μL/well) was added to each well and incubated for one hour at RT. Primary antibody solution was prepared (anti-trimethyl-MEKK2 at 1:600 dilution plus mouse anti-flag antibody at 1:10,000 dilution in diluent (Odyssey Blocking buffer+0.1% Tween 20)) and 20 μL per well was dispensed using the Multidrop Combi. Assay plates were then sealed with foil, and incubated overnight at 4° C. Plates were washed five times with PBS-Tween (1×) on Biotek ELx405 and blotted on paper towel to remove excess reagent. […]

[2] = target: T1, SMYD3; assay: SMYD3 Biochemical Assay (MEKK2 protein substrate, 3H-SAM, SPA); details: 30 min preincubation with SMYD3, average of n = 1 to n = 50, read-out: SMYD3 Biochem IC50
Source text: S-adenosylmethionine (SAM), S-adenosylhomocysteine (SAH), Tris, Tween20, dimethylsulfoxide (DMSO), bovine skin gelatin (BSG), and Tris(2-carboxyethyl)phosphine hydrochloride solution (TCEP) were purchased from Sigma-Aldrich at the highest level of purity possible. ^3H-SAM was purchase from American Radiolabeled Chemicals with a specific activity of 80 Ci/mmol. 384-well opaque white OptiPlates and SPA beads (Perkin Elmer, catalog # RPNQ0013) were purchased from PerkinElmer.
N-terminally GST-tagged MEKK2 (MAP3K2) protein corresponding to reference sequence AAF63496.3 was purchased from Life Technologies (catalog # PV4010). This protein was expressed in High Five insect cells and purified to >85% purity. Protein identity was confirmed by MS/MS analysis after proteolytic digestion. The protein sequence used was:
Full-length human SMYD3 isoform 1 (BAB86333) was inserted into a modified pET21b plasmid containing a His6 tag and TEV and SUMO cleavage sites. Because two common variants of SMYD3 exist in the population, site directed mutagenesis was subsequently performed to change amino acid 13 from an asparagine to a lysine, resulting in plasmid pEPZ533. A lysine at position 13 conforms to the more commonly occurring sequence (NP_001161212).
E. coli (BL21 codonplus RIL strain, Stratagene) were transformed with plasmid pEPZ553 by mixing competent cells and plasmid DNA and incubating on ice for 30 minutes followed by heat shock at 42° C. for 1 minute and cooling on ice for 2 minutes. Transformed cells were grown and selected on LB agar with 100 μg/mL ampicillin and 17 μg/mL chloramphenicol at 37° C. overnight. A single clone was used to inoculate 200 mL of LB medium with 100 μg/mL ampicillin and 17 μg/mL chloramphenicol and incubated at 37° C. on an orbital shaker at 180 rpm. Once in log growth, the culture was diluted 1:100 into 2 L of LB medium and grown until OD600 was about 0.3 after which the culture was incubated at 15° C. and 160 rpm. Once OD600 reached about 0.4, IPTG was added to a final concentration of 0.1 mM and the cells were grown overnight at 15° C. and 160 rpm. Cells were harvested by centrifugation at 8000 rpm, for 4 minutes at 4° C. and stored at −80° C. for purification.
Expressed full-length human His-tagged SMYD3 protein was purified from cell paste by Nickel affinity chromatography after equilibration of the resin with Buffer A (25 mM Tris, 200 mM NaCl, 5% glycerol, 5 mM β-mercaptoethanol, pH7.8). The column was washed with Buffer B (Buffer A plus 20 mM imidazole) and His-tagged SMYD3 was eluted with Buffer C (Buffer A plus 300 mM imidazole). The His tag, TEV and SUMO cleavage sites were removed generating native SMYD3 by addition of ULP1 protein at a ratio of 1:200 (ULP1:SMYD3). Imidazole was removed by dialysis overnight in Buffer A. The dialyzed solution was applied to a second Nickel column and the native SMYD3 protein was collected from the column flow-through. The flow-through was dialyzed in Buffer D (25 mM Tris, 5% glycerol, 5 mM β-mercaptoethanol, 50 mM NaCl, pH7.8) and ULP1 was removed using a Q sepharose fast flow column. SMYD3 was eluted in Buffer A and further purified using an S200 size-exclusion column equilibrated with Buffer A. SMYD3 was concentrated to 2 mg/mL with a final purity of 89%.
The assays were all performed in a buffer consisting of 25 mM Tris-Cl pH 8.0, 1 mM TCEP, 0.005% BSG, and 0.005% Tween 20, prepared on the day of use. Compounds in 100% DMSO (1 ul) were spotted into a 384-well white opaque OptiPlate using a Bravo automated liquid handling platform outfitted with a 384-channel head (Agilent Technologies). DMSO (1 ul) was added to Columns 11, 12, 23, 24, rows A-H for the maximum signal control and 1 ul of SAH, a known product and inhibitor of SMYD3, was added to columns 11, 12, 23, 24, rows I-P for the minimum signal control. A cocktail (40 ul) containing the SMYD3 enzyme was added by Multidrop Combi (Thermo-Fisher). […]

T1 sequence (Q9H7B4 whole entry): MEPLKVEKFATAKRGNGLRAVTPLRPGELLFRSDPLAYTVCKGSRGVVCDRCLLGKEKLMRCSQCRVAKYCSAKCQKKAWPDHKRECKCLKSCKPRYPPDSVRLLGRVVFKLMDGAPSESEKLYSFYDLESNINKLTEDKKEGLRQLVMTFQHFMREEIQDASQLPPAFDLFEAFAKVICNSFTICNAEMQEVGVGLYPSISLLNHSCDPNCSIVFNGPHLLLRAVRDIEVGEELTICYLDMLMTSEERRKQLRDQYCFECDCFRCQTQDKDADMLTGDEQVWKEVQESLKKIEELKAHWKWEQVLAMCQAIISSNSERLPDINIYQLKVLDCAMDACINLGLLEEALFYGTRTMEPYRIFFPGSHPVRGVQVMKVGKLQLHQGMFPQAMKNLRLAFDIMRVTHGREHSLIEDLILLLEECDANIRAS

## C=CS(=O)(=O)N1CC(NC(=O)c2cc(C3CC3)on2)C1 [Cpd. No. 1, 5-cyclopropyl-N-(1-(vinylsulfonyl)azetidin-3-yl) isoxazole-3-carboxamide]
[1]
  IC50: > 10 µM
[2]
  IC50: > 10 µM

## C=CS(=O)(=O)N[C@H]1CC[C@H](NC(=O)c2cc(C3CC3)on2)CC1 [Cpd. No. 2, 5-cyclopropyl-N-((1r,4r)-4-(vinylsulfonamido)cyclohexyl) isoxazole-3-carboxamide]
[2]
  IC50: 31 µM

## O=C(NC1CCN(C(=O)CCl)CC1)c1cc(C2CC2)on1 [Cpd. No. 4, N-(1-(2-chloroacetyl)piperidin-4-yl)-5-cyclopropylisoxazole-3-carboxamide]
[1]
  IC50: 6.65 µM
[2]
  IC50: 33.5 µM

## C=CC(=O)N1CCC(NC(=O)c2cc(C3CC3)on2)CC1 [Cpd. No. 5, N-(1-acryloylpiperidin-4-yl)-5-cyclopropylisoxazole-3-carboxamide]
[1]
  IC50: > 10 µM
[2]
  IC50: > 100 µM

## C=CC(=O)N[C@H]1CC[C@H](NC(=O)c2cc(C3CC3)on2)CC1 [compound 3, N-((1r,4r)-4-acrylamidocyclohexyl)-5-cyclopropylisoxazole-3-carboxamide]
[1]
  IC50: > 10 µM
[2]
  IC50: 74.1 µM

## C=CS(=O)(=O)N1CCC(NC(=O)c2cc(C3CC3)on2)C[C@@H]1C (stereo partly drawn) [compound 6, 5-cyclopropyl-N-((2S)-2-methyl-1-(vinylsulfonyl)piperidin-4-yl) isoxazole-3-carboxamide]
[1]
  IC50: 2.12 µM
[2]
  IC50: 5.27 µM

## C=CS(=O)(=O)N1CCC(NC(=O)c2cc(C3CC3)on2)C[C@H]1C (stereo partly drawn) [compound 7, 5-cyclopropyl-N-((2R)-2-methyl-1-(vinylsulfonyl)piperidin-4-yl) isoxazole-3-carboxamide]
[1]
  IC50: 2.19 µM
[2]
  IC50: 3.68 µM

## C=CS(=O)(=O)N[C@H]1CC[C@@H](NC(=O)c2cc(C3CC3)on2)CC1 [compound 8, 5-cyclopropyl-N-((1s,4s)-4-(vinylsulfonamido)cyclohexyl) isoxazole-3-carboxamide]
[1]
  IC50: > 10 µM
[2]
  IC50: > 10 µM

## C=CS(=O)(=O)N1CCC(NC(=O)c2cc(C3CC3)on2)CC1 [compound 9, 5-cyclopropyl-N-(1-(vinylsulfonyl)piperidin-4-yl) isoxazole-3-carboxamide]
[2]
  IC50: 31.7 µM

## C=CS(=O)(=O)N1CCC(NC(=O)c2cc(C3CC3)on2)C1 (centres unmarked) [compound 10, 5-cyclopropyl-N-(1-(vinylsulfonyl)pyrrolidin-3-yl) isoxazole-3-carboxamide]
[2]
  IC50: > 50 µM
